Data reported in patent US10004702B2, “Linear guanidine derivatives, methods of preparation and uses thereof” (LEAD DISCOVERY SIENA S.R.L., priority 2014, dated 2018).
In brackets after ≈: the same amount, converted by molar mass.

Tests used:
[1] = tested on: Achromobacter xylosoxidans AX 22; assay: Bactericidal activity (MBC); assay type: cell-based; conditions: AX22
[2] = tested on: Pseudomonas aeruginosa ATCC 27853; assay: Bactericidal activity (MBC); assay type: cell-based; conditions: ATCC27853
[3] = tested on: Enterobacter cloacae VA-417/02 (VIM-4); assay: Bactericidal activity (MBC); assay type: cell-based
[4] = Parallel Artificial Membrane Permeability Assay (PAMPA); assay type: in vitro ADME; conditions: pH 7.4, 5 h at room temperature, read-out: apparent permeability (Papp)
Experimental: Donor solution (0.5 mM) was prepared by diluting 1 mM dimethylsulfoxide (DMSO) compound stock solution using tris-HCl buffer (50 mM) at pH 7.4. Filters were coated with 5 μL of a 1% (w/v) dodecane solution of phosphatidylcholine. Donor solution (150 μL) was added to each well of the filter plate. To each well of the acceptor plate were added 300 μL of solution (50% DMSO in phosphate buffer). Compound 28 was tested in three different plates on different days. The sandwich was incubated for 5 h at room temperature under gentle shaking. After the incubation time, the plates were separated, and samples were taken from both receiver and donor sides and analyzed using LC with UV detection at 210 and 254 nm. LC analysis were performed with a Perkin-Elmer (series 200) instrument equipped with an UV detector (Perkin-Elmer […], UV/vis Detector). Chromatographic separation were conducted using a Polaris C18 column (150-4.6 mm, 5 μm particle size) at a flow rate of 0.8 mL min-1 with a mobile phase composed of 50% CH3CN/50% H2O-formic acid 0.1%. Permeability (Papp) was calculated according to equation 1, obtained from Sugano [12] and Wohnsland [13] equation with some modification to obtain values in cm/s. […]

[5] = tested on: Chryseobacterium meningosepticum CCUG 4310; assay: Antimicrobial susceptibility testing, MIC by microdilution broth method; assay type: cell-based; conditions: Elizabethkingia meningoseptica, CCUG4310, Mueller-Hinton broth, 18-24 hours at 35-37° C., read-out: MIC
Experimental: (§1) Bacterial strains were obtained from the ATCC or CCUG culture collections or present in the authors' collection of clinical isolates. Compounds were re-suspended in dimethyl sulfoxyde (DMSO) at a final concentration of 10 mg/ml and subsequently diluted in the culture medium. The minimum inhibitory concentrations (MICs) of the compounds of the invention were determined using the microdilution broth method using Mueller-Hinton broth as recommended by the Clinical Laboratory Standards Institute (CLSI [11]). Bacterial inoculum was 5×10^4 CFU/well. MICs were recorded after 18-24 hours incubation at 35-37° C.

Burkholderia cepacia RII [6] = assay: as above; assay type: cell-based; conditions: Mueller-Hinton broth, 18-24 hours at 35-37° C., read-out: MIC
Experimental: as §1

[7] = tested on: Bacillus subtilis ATCC 6633; assay: Bactericidal activity (MBC); assay type: cell-based; conditions: ATCC6633
[8] = tested on: Chryseobacterium meningosepticum CCUG 4310; assay: Bactericidal activity (MBC); assay type: cell-based; conditions: Elizabethkingia meningoseptica, CCUG4310
Human Serum Albumin = Human Serum Albumin (Homo sapiens, UniProt P02768); assay: Binding fluorimetric assay (tryptophan quenching); conditions: fixed concentration of HSA titrated with different amounts of compound
Experimental: The solutions were mixed and after allowing 30 minutes at room temperature to reach the equilibrium conditions, the spectra were recorded. […] The percentages obtained were plotted against the concentrations used and the KD values were calculated using GraphPad software (version 5.0).

Burkholderia cepacia RII [9] = assay: Bactericidal activity (MBC); assay type: cell-based
[10] = tested on: Klebsiella pneumoniae 081R; assay: Bactericidal activity (MBC); assay type: cell-based
[11] = tested on: Klebsiella pneumoniae ATCC 13833; assay: Bactericidal activity (MBC); assay type: cell-based; conditions: ATCC13833
[12] = tested on: Stenotrophomonas maltophilia 634/08; assay: Bactericidal activity (MBC); assay type: cell-based
[13] = tested on: Acinetobacter baumannii ATCC 17978; assay: Bactericidal activity (MBC); assay type: cell-based; conditions: ATCC17978
[14] = tested on: Acinetobacter baumannii AC-54/97 (IMP-2); assay: Bactericidal activity (MBC); assay type: cell-based
[15] = tested on: Enterococcus faecalis ATCC 19433; assay: Bactericidal activity (MBC); assay type: cell-based; conditions: ATCC19433
[16] = tested on: Gram-positive and Gram-negative organisms; assay: Antimicrobial susceptibility testing, overall statements on the panel; assay type: cell-based; conditions: overall comparison over the tested strains
Experimental: as §1

Water solubility = assay type: physicochemical; conditions: thermodynamic from solid, room temperature, LC-UV-MS
Experimental: Solid compound 28 (1.01 mg) was added to 1 mL of water. The sample was shaken in a shaker bath at room temperature for 24 h. The suspension was filtered through a 0.45-μm nylon filter (Acrodisc), and the solubilised compound determined by LC-UV-MS assay. The determination was performed in triplicate. For the quantification was used an LC-UV-MS system consisted of a Varian apparatus (Varian Inc) including a vacuum solvent degassing unit, two pumps (212-LC), a Triple Quadrupole MSD (Mod. 320-LC) mass spectrometer with ES interface and Varian MS Workstation System Control Vers. 6.9 software. Chromatographic separation was obtained using a Pursuit C18 column (50×2.0 mm) (Varian) with 3 μm particle size and gradient elution: eluent A being CH3CN and eluent B consisting of an aqueous solution of formic acid (0.1%).
The flow rate was 0.4 ml/min and injection volume was 20 μL. The instrument operated in positive mode and parameters were: detector 1850 V, drying gas pressure 25.0 psi, desolvation temperature 300.0° C., nebulizing gas 45.0 psi, needle 5000 V and shield 600 V. Nitrogen was used as nebulizer and drying gas. Collision induced dissociation was performed using Argon as the collision gas at a pressure of 1.8 mTorr in the collision cell, the collision energy was set to 149 eV. UV lamp was set to 210 nm. […]

Escherichia coli CCUG^T = assay: Bactericidal activity (MBC); assay type: cell-based
[17] = tested on: Alcaligenes faecalis 424/98; assay: Bactericidal activity (MBC); assay type: cell-based

Human Serum Albumin, sequence (P02768 25-609): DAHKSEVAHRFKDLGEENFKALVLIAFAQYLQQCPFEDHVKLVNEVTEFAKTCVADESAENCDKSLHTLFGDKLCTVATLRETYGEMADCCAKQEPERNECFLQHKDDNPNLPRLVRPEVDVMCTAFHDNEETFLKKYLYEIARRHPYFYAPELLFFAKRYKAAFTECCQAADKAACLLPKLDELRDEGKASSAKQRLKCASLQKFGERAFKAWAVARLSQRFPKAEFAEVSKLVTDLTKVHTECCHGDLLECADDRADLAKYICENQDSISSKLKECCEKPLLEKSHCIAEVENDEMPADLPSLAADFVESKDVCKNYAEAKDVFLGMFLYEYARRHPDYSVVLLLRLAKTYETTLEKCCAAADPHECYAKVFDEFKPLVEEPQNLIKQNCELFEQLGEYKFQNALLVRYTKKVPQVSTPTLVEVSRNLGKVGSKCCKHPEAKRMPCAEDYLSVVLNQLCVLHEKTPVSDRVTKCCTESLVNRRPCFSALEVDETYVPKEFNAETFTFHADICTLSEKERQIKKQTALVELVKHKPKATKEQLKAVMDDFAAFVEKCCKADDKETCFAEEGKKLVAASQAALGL

With N=C(N)NCCCCCCCCN(CCCCCCCCNC(=N)NCC1CC1)C(=O)N(CCCCCCCCNC(=N)N)CCCCCCCCNC(=N)NCC1CC1 [Compound 28, 1,3-bis(8-(3-(cyclopropylmethyl)guanidino)octyl)-1,3-bis(8-guanidinooctyl)urea] the MBC [1] was 8 µg/mL (≈ 9.46 µM), the MBC [2] was 4 µg/mL (≈ 4.73 µM) and the MBC [3] was 1 µg/mL (≈ 1.18 µM). It also gave a Papp at 5 h, 0.5 mM [4] of 1.6 ×10⁻⁶ cm/s, an MIC [5] of 64 µg/mL (≈ 75.7 µM) and an MIC (Burkholderia cepacia RII [6]) of 8 µg/mL (≈ 9.46 µM). For the same compound, the MBC [7] was 0.5 µg/mL (≈ 0.591 µM), the MBC [8] was 64 µg/mL (≈ 75.7 µM) and the “intrinsic fluorescence decrease of HSA” value (Human Serum Albumin) was “scarce intrinsic fluorescence decrease”. The MBC (Burkholderia cepacia RII [9]) was 8 µg/mL (≈ 9.46 µM), the MBC [10] was 2 µg/mL (≈ 2.37 µM) and the MBC [11] was 1 µg/mL (≈ 1.18 µM). For the same compound, the MBC [12] was 16 µg/mL (≈ 18.9 µM), the MBC [13] was 4 µg/mL (≈ 4.73 µM) and the MBC [14] was 2 µg/mL (≈ 2.37 µM). For the same compound, the MBC [15] was under 0.125 µg/mL, the “antimicrobial activity (in words)” value [16] was “most active among the series” and the “antimicrobial spectrum (in words)” value [16] was “active against both Gram-positive and Gram-negative organisms”. The solubility at 24 h (Water solubility) was 292 µg/mL (≈ 345 µM), the MBC (Escherichia coli CCUG^T) was 1 µg/mL (≈ 1.18 µM) and the MBC [17] was 8 µg/mL (≈ 9.46 µM).
